# Calls of active or inactive are those of the source. The calls are words filed in the database; no cut-off is given here.
# Columns and labels:
# Plasma = assay: Free plasma concentration in ovariectomized rhesus monkey at 5 mg/kg/day, po; format: ADME, organism-based, Macaca mulatta; design: route oral; settings: in vivo
# [1] = AUC (0 to last) in in ovariectomized rhesus monkey at 5 mg/kg/day, po; format: ADME, organism-based, Macaca mulatta; design: dose 5 mg/kg/day, time 0 - last, route oral; settings: female, plasma
# [2] = AUC (0 to infinity) in rat at 2 mg/kg, iv; format: ADME, organism-based; design: time infinity, dose 2 mg/kg, route intravenous; settings: plasma
# [3] = Volume of distribution at steady state in rat at 2 mg/kg, iv; format: ADME, organism-based; design: dose 2 mg/kg, route intravenous; settings: in vivo, read-out: Vdss
# [4] = Clearance in rat at 2 mg/kg, iv; format: ADME, organism-based; design: dose 2 mg/kg, route intravenous; settings: in vivo
# [5] = Oral bioavailability in cynomolgus monkey at 2 mg/kg; format: ADME, organism-based, Macaca fascicularis; settings: in vivo
# [6] = AUC (0 to infinity) in cynomolgus monkey at 2 mg/kg, po; format: ADME, organism-based, Macaca fascicularis; design: time infinity, dose 2 mg/kg, route oral; settings: plasma
# [7] = Fraction unbound in rat plasma; format: ADME, cell-free
# [8] = molecular target: T1, Estrogen receptor (Homo sapiens) (UniProt P03372); assay: Agonist activity at estrogen receptor by cellular reporter gene assay; format: functional
# T1 sequence (whole entry): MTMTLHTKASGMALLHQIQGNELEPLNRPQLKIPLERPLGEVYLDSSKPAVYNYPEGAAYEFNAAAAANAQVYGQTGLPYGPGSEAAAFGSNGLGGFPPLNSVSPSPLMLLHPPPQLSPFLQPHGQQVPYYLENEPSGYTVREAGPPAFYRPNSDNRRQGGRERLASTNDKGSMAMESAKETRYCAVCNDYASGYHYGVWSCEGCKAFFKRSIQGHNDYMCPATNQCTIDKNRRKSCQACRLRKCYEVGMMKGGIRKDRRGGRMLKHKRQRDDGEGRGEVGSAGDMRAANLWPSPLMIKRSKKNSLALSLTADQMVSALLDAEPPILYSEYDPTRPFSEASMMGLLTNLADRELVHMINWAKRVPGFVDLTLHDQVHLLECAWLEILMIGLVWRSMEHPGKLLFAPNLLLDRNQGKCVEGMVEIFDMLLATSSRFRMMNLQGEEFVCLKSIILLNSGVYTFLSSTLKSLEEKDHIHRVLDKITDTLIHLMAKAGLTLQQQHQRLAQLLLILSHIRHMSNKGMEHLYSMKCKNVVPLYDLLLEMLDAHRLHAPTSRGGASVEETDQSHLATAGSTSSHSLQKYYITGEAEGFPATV
# [9] = molecular target: T2, Androgen receptor (Homo sapiens) (UniProt P10275); assay: Agonist activity at androgen receptor by cellular reporter gene assay; format: functional
# T2 sequence (whole entry): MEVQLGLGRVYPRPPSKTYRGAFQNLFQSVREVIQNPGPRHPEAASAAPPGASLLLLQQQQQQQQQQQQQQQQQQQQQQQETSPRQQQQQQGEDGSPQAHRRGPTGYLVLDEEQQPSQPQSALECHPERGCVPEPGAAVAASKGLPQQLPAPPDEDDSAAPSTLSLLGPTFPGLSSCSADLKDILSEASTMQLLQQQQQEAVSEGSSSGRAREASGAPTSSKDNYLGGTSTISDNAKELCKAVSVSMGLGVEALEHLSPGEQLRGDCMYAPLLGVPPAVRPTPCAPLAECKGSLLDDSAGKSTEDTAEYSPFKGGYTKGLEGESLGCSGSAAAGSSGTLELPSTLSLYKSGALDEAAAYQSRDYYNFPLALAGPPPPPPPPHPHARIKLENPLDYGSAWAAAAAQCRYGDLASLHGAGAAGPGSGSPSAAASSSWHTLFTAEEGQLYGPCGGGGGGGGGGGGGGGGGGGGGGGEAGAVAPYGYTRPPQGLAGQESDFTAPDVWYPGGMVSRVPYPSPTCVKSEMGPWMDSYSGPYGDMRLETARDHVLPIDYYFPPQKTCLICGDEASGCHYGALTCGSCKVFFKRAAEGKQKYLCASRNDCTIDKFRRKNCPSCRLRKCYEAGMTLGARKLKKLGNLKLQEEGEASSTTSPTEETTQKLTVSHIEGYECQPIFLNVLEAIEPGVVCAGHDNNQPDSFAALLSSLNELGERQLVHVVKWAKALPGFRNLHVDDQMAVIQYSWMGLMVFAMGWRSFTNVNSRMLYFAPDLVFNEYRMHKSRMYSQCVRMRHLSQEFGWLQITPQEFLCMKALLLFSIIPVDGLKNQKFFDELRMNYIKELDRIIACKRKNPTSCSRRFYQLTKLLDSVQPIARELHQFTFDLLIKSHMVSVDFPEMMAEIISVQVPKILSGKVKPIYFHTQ
# Salmonella typhimurium = assay: Mutagenicity in Salmonella typhimurium in absence of liver S9 fraction by non-GLP Ames test; format: toxicity, organism-based; settings: salmonella enterica subsp. enterica serovar typhimurium
# Progesterone receptor = molecular target: T3, Progesterone receptor (Homo sapiens, UniProt P06401); assay: Antagonist activity against progesterone receptor in human T47D cells by alkaline phosphatase assay; format: functional, cell-based
# T3 sequence (P06401 whole entry): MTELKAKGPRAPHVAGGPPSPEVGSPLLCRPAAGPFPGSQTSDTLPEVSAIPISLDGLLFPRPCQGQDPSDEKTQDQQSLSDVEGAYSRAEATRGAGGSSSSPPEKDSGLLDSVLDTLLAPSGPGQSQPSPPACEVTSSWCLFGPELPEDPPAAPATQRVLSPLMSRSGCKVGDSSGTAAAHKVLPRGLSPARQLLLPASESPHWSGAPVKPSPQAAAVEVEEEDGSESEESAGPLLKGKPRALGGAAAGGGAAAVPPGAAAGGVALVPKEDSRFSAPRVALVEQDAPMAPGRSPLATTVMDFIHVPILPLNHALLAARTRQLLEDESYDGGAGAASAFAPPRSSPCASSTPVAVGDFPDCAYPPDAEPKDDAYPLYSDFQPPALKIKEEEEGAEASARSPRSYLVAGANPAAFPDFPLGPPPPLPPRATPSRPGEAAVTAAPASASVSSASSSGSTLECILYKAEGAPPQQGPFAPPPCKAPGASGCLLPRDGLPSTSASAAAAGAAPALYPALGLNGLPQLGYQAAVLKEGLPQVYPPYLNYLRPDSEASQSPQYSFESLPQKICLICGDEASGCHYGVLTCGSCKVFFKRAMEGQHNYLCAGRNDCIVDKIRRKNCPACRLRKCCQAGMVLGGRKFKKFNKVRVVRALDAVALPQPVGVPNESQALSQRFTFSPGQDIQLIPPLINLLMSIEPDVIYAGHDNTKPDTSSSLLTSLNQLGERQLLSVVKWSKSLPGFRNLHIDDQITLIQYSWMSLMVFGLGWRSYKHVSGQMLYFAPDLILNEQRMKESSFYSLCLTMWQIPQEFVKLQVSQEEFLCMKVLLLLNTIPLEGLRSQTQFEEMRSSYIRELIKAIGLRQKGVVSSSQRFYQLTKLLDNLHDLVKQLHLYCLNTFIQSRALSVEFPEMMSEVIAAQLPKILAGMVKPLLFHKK
# [10] = Cmax in cynomolgus monkey at 2 mg/kg, po; format: ADME, organism-based, Macaca fascicularis; design: dose 2 mg/kg, route oral; settings: in vivo
Structure (SMILES),Cp(f) (Plasma) [nM],AUC(0-t) [1] [ng·h/mL],AUC(0-inf) [2] [ng·h/mL],Vd [3] [L/kg],clearance [4] [mL/min/kg],bioavailability [5] [%],AUC(0-inf) [6] [ng·h/mL],fraction unbound [7],Activity [8],Activity [9],Activity (Salmonella typhimurium),IC50 (Progesterone receptor) [nM],Cmax [10] [ng/mL]
CCS(=O)(=O)Nc1cc(F)c(-c2ccc(C#N)n2C)c(F)c1,11,28500,13000,0.5,2.6,69,13700,0.019,inactive,inactive,Non-toxic,12,5100
COC[C@]1(OC)CC[C@H]2[C@@H]3CCC4=CC(=O)CCC4=C3[C@@H](c3ccc(/C=N/O)cc3)C[C@@]21C [ASOPRISNIL],–,–,–,–,–,–,–,–,inactive,inactive,–,0.3,–

# — ChEMBL document CHEMBL2203135, “Novel progesterone receptor modulators: 4-aryl-phenylsulfonamides” (Bioorg Med Chem Lett, 2012)
